The values below come from patent US20250215400A1, “CRYOPRESERVATION MEDIUM COMPRISING HYALURONIC ACID, USE THEREOF AND METHOD OF CRYOPRESERVATION” (CONTIPRO A.S., priority 2022, published 2025).

For one data set, the system named is stem cells. Particulars: room temperature; Pal et al., 2012; Tunçer et al., 2018; cited from earlier work.
The subject of the next data set is hMSC cells. Kind of data set: total number of hMSC cells (CaSy cell counter) after cryopreservation, thawing and two weeks of cultivation. It counts as cell-based, human. Particulars: Example 1, cryopreservation medium in α-MEM. How it is done: FIG. 1 represents the total number of hMSC cells measured using CaSy cell counter (OMNI Life Science GmbH) after two weeks of cultivation. The data are shown as averages and the standard deviation is shown as an error bar.
Mesenchymal stem cell cultures were cryopreserved. The method of cryopreservation consists of the addition of a cryopreservation medium to the sample and the subsequent […] cryopreservation through a slow freeze at a rate of 1° C./min, for preservation of the sample at low temperatures (−80 C to −196C). The cryopreserved stem cell culture is revived after preservation by thawing in a water bath at 37° C. for 2 minutes and the cryopreservation medium is subsequently washed away from the cellular suspension by centrifugation. The cells are then seeded in a cultivation bottle and cultivated for two weeks.
For cryopreservation, 4 different combinations of cryoprotective medium containing hyaluronic acid with MW 1,500,000 g/mol in two concentrations of 0.1 and 0.2% (w/v) with an addition of 5 or 3% DMSO (v/v) dissolved in a standard α-MEM medium were used. The composition containing 5, 3 or 10% (v/v) DMSO in the medium served as a cryopreservation control.
The mesenchymal stem cells hMSC cultures were cryopreserved. […]

As for `C[S+](C)[O-]` [DMSO, dimethyl sulfoxide], the “concentration range at which an effect on viability, morphology, cell adhesion and differentiation was observed” value in the data set with stem cells was 0.1-1 % (v/v). For the same molecule, the “stem cell survival and proliferation efficiency” value in the data set with hMSC cells was “lower MSCs survival and proliferation efficiency”.
